The record followed here is US20200289611A1, “Methods and Compositions for the Inhibition of Quorum Sensing in Bacterial Infections” (priority 2016, published 2020).

“Also recorded” adds a separate entry of the source.

Assay [1] concerns agr (P3-YFP reporter strains, agr types I-IV). As to the kind of experiment: agr P3-YFP reporter quorum quenching assay. Format: cell-based, Staphylococcus aureus. The protocol: Apicidin was tested for quorum quenching activity against all four agr types using P3-YFP reporter strains AH1677 (type I), AH430 (type II) AH1747 (type III), and AH1872 (type IV). (28) Overnight cultures of reporter strains that were grown in TSB supplemented with Cam were inoculated at a dilution of 1:250 into fresh TSB containing Cam. 100 μL, aliquots were added to 96-well microtiter plates containing 100 μL aliquots of TSB containing Cam and 2-fold serial dilutions of apicidin. Readings were recorded at 30 min increments using a Tecan Systems Infinite M200 plate reader.

Assay [2] concerns polymorphonuclear neutrophils (PMN) at MRSA infected skin. As to the kind of experiment: Flow cytometry of PMNs in infected skin. It counts as in vivo, mice. The protocol: For skin: abdominal skin ulcerations were excised and incubated in trypsin (0.6% in PBS) for 75 min at 37° C.; then cut into small pieces and incubated in Collagenase type II (0.5 mg/ml RPMI) for 90 min at 37° C. Skin cell suspensions were generated by serial passage of skin fragments through 18 and 20 gauge syringes. IN cell suspensions were generated mincing inguinal LNs with a razor blade before by serial passage of skin fragments through 18 and 20 gauge syringes. AU tissue preps were passed through a 70 am filter before immune cell staining. For whole blood: blood was collected, washed and resuspended in Tris-buffered ammonium chloride to lyse red blood cells.
For staining of skin, LN and whole blood preparations, the following antibodies: Anti-Ly6G (AI8), Anti-Ly6C (HK1.4), -CD11b (M1/70), CD45 (30-F11) were purchased from BioLegend. To block nonspecific binding, cells were incubated with rat anti-mouse CD16/32 FcγRIII/II (2.4G2) and vortexed prior to surface staining. In all experiments, LN or blood cells were collected on a FACS LSR using Cellquest software, and analyzed via FlowJo software. Dead cells were excluded by low forward-scatter and side-light scatter. Spectral overlaps between fluorochrome channels were corrected by automated compensation on singly stained, positive controls for each fluorochrome. In general, 50,000 cells were collected/tube. Flow cytometric analyses of agr-interference in bacterial cultures were conducted.

Another assay relates to MRSA (USA300 LAC). As to the kind of experiment: Intradermal MRSA skin infection model. The following applies: for cutaneous bacterial burden: Lux+ MRSA bioluminescence (IVIS). Format: in vivo, mice (C57BL/6 and BALB/c). The protocol:
At D0, age, strain and sex matched mice were anesthetized with isoflurane, abdominal skin was carefully shaved and exposed skin was cleansed by wiping with an alcohol prep pad. For inoculum preparation, a USA 300 MRSA strain (AH1263), its deletion mutant, LAC strains engineered for constitutive bioluminescence via lux operon insertion (AH3700) or the Lux+ LAC engineered to constitutively express red fluorescent protein (AH 3868), green fluorescent protein (AH3669) were grown to mid-log-phase, pelleted and resuspended in DPBS to achieve 50 μl inoculum mixtures that contained either 2×10^7 CFUs+/−5 μg apicidin (diluted in neat DMSO). Apicidin or DMSO containing inoculums were injected intradermally into abdominal skin. Baseline body weights of mice were measured before infection and every day thereafter for a period of 7 days. For determination of lesion size, digital photos of skin lesions were taken daily and analyzed via ImageJ software.
The potent in vitro activity of apicidin encouraged an assessment of its efficacy in vivo. To this end, an intradermal challenge model was employed by delivering a single 5 μg dose of apicidin along as part of the inoculum suspension containing 2×10^7 MRSA organisms.

A further assay concerns AgrC. As to the kind of experiment: Constitutive AgrC mutant (R235H) assays. Format: cell-based, Staphylococcus aureus. The protocol:
To investigate the mechanisms by which apicidin inhibits quorum sensing, a series of in vitro assays were conducted to systematically assess the relative contribution of each of the core genetic elements of the agrBDCA operon (FIG. 13A). The membrane embedded peptidase AgrB, is responsible for processing the AgrD pro-peptide (immature AIP) for extracellular release. To determine if apicidin inhibits agr signaling at the level of AIP signal generation, an established system was used whereby the agrBD genes (under sarA P1 promoter regulation), were integrated into an agr null strain derived from the USA300 isolate LAC (40). This construct enables alterations to AIP signal biosynthesis to be clearly delineated from regulation stemming from signal integration. […] Next, the possibility that apicidin interferes with the sensory activity of AIP receptor AgrC was explored. For this, a R235H construct bearing a point mutation that confers constitutive AgrC activity, and thereby enables phospho-activation of AgrA to occur independently of AIP binding, was employed. […] Next, it was determined if AgrA serves as the target of apicidin. To this end, an agr null reporter construct, whereby agrP3 lux activation can only be achieved through the constitutive production of plasmid encoded AgrA […], was employed. […]

As for `CCC(=O)CCCCC[C@@H]1NC(=O)[C@H]2CCCCN2C(=O)[C@H](C(C)CC)NC(=O)[C@H](Cc2cn(OC)c3ccccc23)NC1=O` (stereo partly drawn) [apicidin], the “agr inhibition relative to its analogues” value in assay [1] was “showed the most impressive actions as an agr inhibitor”. Further, the “MICs for quorum sensing inhibition” value in assay [1] (across S. aureus isolates) is listed as “low micromolar”. In addition, in assay [1] (agr P3 driven YFP expression, time course), the “agr-type dependence of quorum quenching potency” value was “types II and IV representing the most sensitive and resistant respectively”. In addition, the “inhibition of quorum sensing (agr P3 reporter)” value in assay [1] (agr types I-IV reporter strains) is given as “inhibited quorum sensing activity across S. aureus isolates; also recorded: inhibition extends to all 4 agr types; also recorded: inhibited the quorum sensing responses of multiple agr types”. In assay [1] (all agr types), the IC50 of agr-inhibition result is on record as “μM concentrations that were sub-inhibitory for growth”. Moreover, the “PMN density / accumulation at infected skin” value in assay [2] (24 hours post infection) was “enhanced; also recorded: increased the density of PMNs within infected wounds; also recorded: augmenting their accumulation”. The “frequency of PMN able to phagocytose MRSA” value in assay [2] (DsRed+ MRSA) is listed as “Though not significantly, a trend showing increased frequency”. Also, the “number of PMNs that phagocytosed MRSA” value in assay [2] (lesional skin preparations) is given as “increased; also recorded: overall enhancement MRSA uptake within the entire network of cutaneous PMNs”. For the same compound, in assay [2] (lesional skin, one day after infection), the “frequency of apoptotic PMNs” value was “decrease in the frequency of apoptotic PMNs”. Further, the cutaneous bacterial burden result is recorded as “reduced; also recorded: decrease in bacterial burden was observed throughout the experiment” in the assay with MRSA (USA300 LAC) and “reduced cutaneous bacterial burden” in the assay with MRSA (USA300 LAC) (listed as Apicidin). For the same compound, the “CFUs recovered from lesional skin” value in the assay with MRSA (USA300 LAC) (one day after infection) is given as “significantly fewer CFUs were recovered”. Moreover, the “skin lesion / dermatopathology” value in the assay on MRSA (USA300 LAC) (single 5 ug dose with 2x107 MRSA, intradermal, 14 days) is “significantly reduced MRSA-induced dermatopathology”. Further, in the assay with AgrC, the “quorum quenching in agr-P3 reporter strain with constitutive AgrC activity” value is recorded as “maintenance of potent quorum quenching activity”. Also, the “inhibition of lytic activity, constitutive AgrC mutant” value in the assay with AgrC (RBC lysis, R235H strain) is “dose dependent inhibition of lytic activity”.
